This note sets out measurements from ChEMBL document CHEMBL1155766, “Secondary metabolites from the roots of Astragalus zahlbruckneri” (J Nat Prod, 2001).

SMILES strings stand for the structures. Activity calls are given as the source filed them. The rule behind the calls is not given here.

For this assay, the target named is T1, Sex hormone-binding globulin (Homo sapiens) (UniProt P04278).
T1 sequence (whole entry): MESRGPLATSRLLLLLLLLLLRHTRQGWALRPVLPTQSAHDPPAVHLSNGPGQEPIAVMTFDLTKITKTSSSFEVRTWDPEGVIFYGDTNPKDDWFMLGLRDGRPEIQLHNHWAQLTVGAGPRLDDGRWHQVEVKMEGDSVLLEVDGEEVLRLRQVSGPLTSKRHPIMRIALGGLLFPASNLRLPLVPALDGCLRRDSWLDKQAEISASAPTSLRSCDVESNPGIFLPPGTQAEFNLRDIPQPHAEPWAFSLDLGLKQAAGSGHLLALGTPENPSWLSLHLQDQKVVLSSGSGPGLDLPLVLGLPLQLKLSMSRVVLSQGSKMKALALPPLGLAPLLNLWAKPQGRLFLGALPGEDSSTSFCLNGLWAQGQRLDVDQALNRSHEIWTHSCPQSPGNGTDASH
Put plainly: Binding affinity to human sex hormone binding globulin.

As for `COc1cc([C@@H]2O[C@@H](c3ccc(O)c(OC)c3)[C@H](CO)[C@H]2CO)ccc1O`, the outcome was Active.
